Assay results as given in PMC7318034, “Safety, Pharmacokinetics, and Drug-Drug Interaction Potential of Intravenous Durlobactam, a β-Lactamase Inhibitor, in Healthy Subjects” (Antimicrobial Agents and Chemotherapy, 2020).
Where two headings read alike, the source gives them in different places.

Experiments:
[1] = Part A single-ascending-dose plasma PK in healthy subjects; assay type: in vivo, human; conditions: for half-life / AUC(0-inf) / Cmax / clearance / Tmax / AUC(0-t) / Vd: human, plasma; for Tmax: median; for Vd: read-out: Vss
Procedure: This was a 4-part, double-blind, placebo-controlled study (15 cohorts) of DUR administered as a 3-h i.v. infusion (except for cohort 4, in which a 2-h i.v. infusion was evaluated) (see Table S5 in the supplemental material).
The blank control matrix was made up of human plasma (BioreclamationIVT) diluted 1:1 with SigmaFast (reconstituted protease inhibitor cocktail tablet [product S8820; Sigma-Aldrich, St. Louis, MO] in 10 ml of water) for preparation of calibration standards and QC samples. […] A 100-μl aliquot of the supernatant was transferred to 96-well plates. Samples were diluted further with 400 μl of water, and 5 μl of sample was injected into the LC-MS/MS system for analysis. […] The LLOQ for all analytes was 5 ng/ml.
AUC was calculated using the log-linear trapezoidal rule.
Pharmacokinetic parameters were summarized at each assessment time point using the mean ± standard deviation (SD), the percent coefficient of variation (CV), median, minimum, and maximum. Single-ascending-dose study data were assessed for dose proportionality using Cmax and AUC, and accumulation ratios was determined using repeat-dose cohorts. […] Noncompartmental analysis of PK parameters was performed using Phoenix WinNonlin (v6.4) software to determine PK parameters.

[2] = Protein binding in human plasma; assay type: in vitro ADME
[3] = Urine PK (urinary excretion, renal clearance) in healthy subjects; conditions: human, urine, intravenous, CLr
[4] = cohort of elderly subjects, DUR 1 g
[5] = iv, 0.25 g, part A cohort 1, single 0.25 g, 3-h i.v. infusion
[6] = iv, 0.5 g, part A cohort 2, single 0.5 g, 3-h i.v. infusion
[7] = iv, 1 g, part A cohort 3, single 1.0 g, 3-h i.v. infusion
[8] = iv, 1 g, part A cohort 4, single 1.0 g, 2-h i.v. infusion
[9] = iv, 1 g, part A cohort 8 (elderly subjects >65 years), single 1.0 g, 3-h i.v. infusion
[10] = iv, 2 g, part A cohort 5, single 2.0 g, 3-h i.v. infusion
[11] = iv, 4 g, part A cohort 6, single 4.0 g, 3-h i.v. infusion
[12] = iv, 8 g, part A cohort 7, single 8.0 g, 3-h i.v. infusion

**Q.** What does the source list for `CC1=C[C@@H]2CN(C(=O)N2OS(=O)(=O)O)[C@@H]1C(N)=O` [DUR, Durlobactam]?
**A.** increase in Cmax with 2-h infusion compared with 3-h infusion ([1]; cohort 4, DUR 1 g): approximately 50%; increase in AUC in elderly subjects compared with younger subjects ([1]; cohort 8, DUR 1 g): 2 fold; increase in Cmax in elderly subjects compared with younger subjects ([1]; cohort 8, DUR 1 g): 1.8 fold; increase in exposure in elderly subjects [1, 4]: 100%; reduction of renal clearance in elderly subjects [1, 4]: approximately 50%; reduction of volume of distribution (V) in elderly subjects [1, 4]: approximately 50%; half-life ([1]; intravenous, range across single doses of 0.25 g to 8 g, read-out: mean half-life (t1/2)): 1.5 to 2.8 h; AUC(0-inf) [1, 5]: 25.5 ± 3.7 µg·h/mL; Cmax [1, 5]: 6900 ± 1000 ng/mL; clearance [1, 5]: 167 mL/min; half-life ([1]; iv, 0.25 g, part A cohort 1, single 0.25 g, 3-h i.v. infusion, mean ± SD, n=6, read-out: t1/2 (converted)): 1.5 ± 0.1 h; Tmax [1, 5]: 3 h; AUC(0-t) ([1]; iv, 0.25 g, part A cohort 1, single 0.25 g, 3-h i.v. infusion, read-out: AUC0–24): 25.5 ± 3.7 µg·h/mL; AUC(0-t) ([1]; iv, 0.25 g, part A cohort 1, single 0.25 g, 3-h i.v. infusion, read-out: AUC0–t): 25.4 ± 3.7 µg·h/mL; Vd [1, 5]: 16.6 ± 3.6 L; AUC(0-inf) [1, 6]: 47.8 ± 7.6 µg·h/mL; Cmax [1, 6]: 9900 ± 2000 ng/mL; clearance [1, 6]: 178 mL/min; half-life ([1]; iv, 0.5 g, part A cohort 2, single 0.5 g, 3-h i.v. infusion, mean ± SD, n=6, read-out: t1/2 (converted)): 2 ± 0.4 h; Tmax [1, 6]: 3 h; AUC(0-t) ([1]; iv, 0.5 g, part A cohort 2, single 0.5 g, 3-h i.v. infusion, read-out: AUC0–24): 47.7 ± 7.5 µg·h/mL; AUC(0-t) ([1]; iv, 0.5 g, part A cohort 2, single 0.5 g, 3-h i.v. infusion, read-out: AUC0–t): 47.4 ± 7.7 µg·h/mL; Vd [1, 6]: 25.8 ± 2.9 L; AUC(0-inf) [1, 7]: 76.1 ± 10.5 µg·h/mL; Cmax [1, 7]: 20700 ± 2800 ng/mL; clearance [1, 7]: 223 mL/min; half-life ([1]; iv, 1 g, part A cohort 3, single 1.0 g, 3-h i.v. infusion, mean ± SD, n=6, read-out: t1/2 (converted)): 2 ± 0.3 h; Tmax [1, 7]: 3 h; AUC(0-t) ([1]; iv, 1 g, part A cohort 3, single 1.0 g, 3-h i.v. infusion, read-out: AUC0–24): 76.1 ± 10.5 µg·h/mL; AUC(0-t) ([1]; iv, 1 g, part A cohort 3, single 1.0 g, 3-h i.v. infusion, read-out: AUC0–t): 75.6 ± 10.4 µg·h/mL; Vd [1, 7]: 25.7 ± 5 L; AUC(0-inf) [1, 8]: 101 ± 28.9 µg·h/mL; Cmax [1, 8]: 31300 ± 6900 ng/mL; clearance [1, 8]: 177 mL/min; half-life ([1]; iv, 1 g, part A cohort 4, single 1.0 g, 2-h i.v. infusion, mean ± SD, n=6, read-out: t1/2 (converted)): 2.2 ± 0.2 h; Tmax [1, 8]: 2 h; AUC(0-t) ([1]; iv, 1 g, part A cohort 4, single 1.0 g, 2-h i.v. infusion, read-out: AUC0–24): 101 ± 28.9 µg·h/mL; AUC(0-t) ([1]; iv, 1 g, part A cohort 4, single 1.0 g, 2-h i.v. infusion, read-out: AUC0–t): 101 ± 29 µg·h/mL; Vd [1, 8]: 22.7 ± 6.4 L; AUC(0-inf) [1, 9]: 151 ± 14.1 µg·h/mL; Cmax [1, 9]: 37800 ± 2500 ng/mL; clearance [1, 9]: 112 mL/min; half-life ([1]; iv, 1 g, part A cohort 8 (elderly subjects >65 years), single 1.0 g, 3-h i.v. infusion, mean ± SD, n=6, read-out: t1/2 (converted)): 2.4 ± 0.3 h; Tmax [1, 9]: 3 h; AUC(0-t) ([1]; iv, 1 g, part A cohort 8 (elderly subjects >65 years), single 1.0 g, 3-h i.v. infusion, read-out: AUC0–24): 151 ± 14 µg·h/mL; AUC(0-t) ([1]; iv, 1 g, part A cohort 8 (elderly subjects >65 years), single 1.0 g, 3-h i.v. infusion, read-out: AUC0–t): 151 ± 14 µg·h/mL; Vd [1, 9]: 14.5 ± 2 L; AUC(0-inf) [1, 10]: 173 ± 25.6 µg·h/mL; Cmax [1, 10]: 41500 ± 6400 ng/mL; clearance [1, 10]: 197 mL/min; half-life ([1]; iv, 2 g, part A cohort 5, single 2.0 g, 3-h i.v. infusion, mean ± SD, n=6, read-out: t1/2 (converted)): 2.2 ± 0.2 h; Tmax [1, 10]: 2.5 h; AUC(0-t) ([1]; iv, 2 g, part A cohort 5, single 2.0 g, 3-h i.v. infusion, read-out: AUC0–24): 173 ± 25.6 µg·h/mL; AUC(0-t) ([1]; iv, 2 g, part A cohort 5, single 2.0 g, 3-h i.v. infusion, read-out: AUC0–t): 173 ± 25.6 µg·h/mL; Vd [1, 10]: 24.3 ± 3.2 L; AUC(0-inf) [1, 11]: 368 ± 55.9 µg·h/mL; Cmax [1, 11]: 96200 ± 13600 ng/mL; clearance [1, 11]: 185 mL/min; half-life ([1]; iv, 4 g, part A cohort 6, single 4.0 g, 3-h i.v. infusion, mean ± SD, n=6, read-out: t1/2 (converted)): 2.7 ± 0.6 h; Tmax [1, 11]: 3 h; AUC(0-t) ([1]; iv, 4 g, part A cohort 6, single 4.0 g, 3-h i.v. infusion, read-out: AUC0–24): 367 ± 55.1 µg·h/mL; AUC(0-t) ([1]; iv, 4 g, part A cohort 6, single 4.0 g, 3-h i.v. infusion, read-out: AUC0–t): 368 ± 55 µg·h/mL; Vd [1, 11]: 22.4 ± 3.6 L; AUC(0-inf) [1, 12]: 732 ± 163 µg·h/mL; Cmax [1, 12]: 176000 ± 29000 ng/mL; clearance [1, 12]: 190 mL/min; half-life ([1]; iv, 8 g, part A cohort 7, single 8.0 g, 3-h i.v. infusion, mean ± SD, n=6, read-out: t1/2 (converted)): 2.8 ± 0.4 h; Tmax [1, 12]: 3 h; AUC(0-t) ([1]; iv, 8 g, part A cohort 7, single 8.0 g, 3-h i.v. infusion, read-out: AUC0–24): 730 ± 164 µg·h/mL; AUC(0-t) ([1]; iv, 8 g, part A cohort 7, single 8.0 g, 3-h i.v. infusion, read-out: AUC0–t): 731 ± 163 µg·h/mL; Vd [1, 12]: 28.1 ± 9.5 L; fraction unbound [2]: 0.1; CL renal ([3]; 0.25 g, mean, part B cohort 9, following the final dose on Day 8, 0.250 g): 84.1 mL/min; CL renal ([3]; 0.25 g, median, part B cohort 9, following the final dose on Day 8, 0.250 g): 73.5 mL/min; CL renal ([3]; 0.5 g, mean, part B cohort 10, following the final dose on Day 8, 0.500 g): 95.6 mL/min
